Test results: patent publication US20060052627A1, “Novel modulators of the PPAR-type receptors and cosmetic/pharmaceutical compositions comprised thereof” (GALDERMA RESEARCH & DEVELOPMENT, S.N.C., priority 2003, published 2006)

Tests used:
Format in all cases: cell-based
PPARγ = target: T1, PPARγ (Homo sapiens, UniProt P37231); assay: Cross-curve PPAR transactivation test (luciferase reporter, HeLN cells), PPARγ; settings: HeLN cells stably transfected with Gal-hPPARγ; apparent Kd by Schild regression against reference agonist; n.a. means not active; read-out: PPAR gamma Kd app
T1 sequence (P37231 238-505 limits assumed): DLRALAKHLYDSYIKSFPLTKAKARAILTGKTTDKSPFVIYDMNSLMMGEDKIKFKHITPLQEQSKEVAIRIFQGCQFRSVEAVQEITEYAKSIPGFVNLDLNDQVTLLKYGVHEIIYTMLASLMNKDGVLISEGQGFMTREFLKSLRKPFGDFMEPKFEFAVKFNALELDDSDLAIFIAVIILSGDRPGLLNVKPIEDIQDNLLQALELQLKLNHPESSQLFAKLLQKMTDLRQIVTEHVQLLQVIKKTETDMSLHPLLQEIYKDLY
Experimental: (§1) This activity on the PPARα, δ and γ receptors is measured in a transactivation test and quantified by the dissociation constant Kdapp (apparent), as described in Example 142.
(§2) The activation of receptors with an agonist (activator) in HeLN cells leads to the expression of a reporter gene, luciferase, which, in the presence of a substrate, generates light. The modulation of the receptors is measured as quantity of luminescence produced after incubating the cells in the presence of a reference agonist. The ligands will displace the agonist from its site. The measurement of the activity is performed by quantification of the light produced. This measurement makes it possible to determine the modulatory activity of the compounds according to the invention by determining the constant which is the affinity of the molecule for the receptor. […]
(§3) The various dilutions of the test products and of the reference ligand are added in an amount of 5 [I per well. […] After 5 minutes, the plates are read by the luminescence reader.
(§4) These AC50 values are used to calculate the Schild regression by plotting a straight line corresponding to the Schild equation (“quantitation in receptor pharmacology” Terry P. Kenakin, Receptors and Channels, 2001, 7, 371-385) which leads to Kd app values being obtained (in nM).

PPARα = target: T2, PPARα (Homo sapiens, UniProt Q07869); assay: Cross-curve PPAR transactivation test (luciferase reporter, HeLN cells), PPARα; settings: HeLN cells stably transfected with Gal-hPPARα; apparent Kd by Schild regression against reference agonist; n.a. means not active; read-out: PPAR alpha Kd app
T2 sequence (Q07869 200-468 limits assumed): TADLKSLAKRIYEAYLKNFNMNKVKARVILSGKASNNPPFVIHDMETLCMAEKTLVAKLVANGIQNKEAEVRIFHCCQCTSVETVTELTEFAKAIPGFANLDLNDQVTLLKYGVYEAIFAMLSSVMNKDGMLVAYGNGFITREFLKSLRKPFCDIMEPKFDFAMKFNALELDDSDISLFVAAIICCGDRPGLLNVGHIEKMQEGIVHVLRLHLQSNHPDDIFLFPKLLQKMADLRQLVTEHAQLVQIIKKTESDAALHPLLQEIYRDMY
Experimental: as §1, §2, §3, §4

PPARδ = PPARδ (Homo sapiens, UniProt Q03181); assay: Cross-curve PPAR transactivation test (luciferase reporter, HeLN cells), PPARδ; settings: HeLN cells stably transfected with Gal-hPPARδ; apparent Kd by Schild regression against reference agonist; n.a. means not active; read-out: PPAR delta Kd app
Experimental: as §1, §2, §3, §4

PPARδ, sequence (Q03181 211-441 limits assumed): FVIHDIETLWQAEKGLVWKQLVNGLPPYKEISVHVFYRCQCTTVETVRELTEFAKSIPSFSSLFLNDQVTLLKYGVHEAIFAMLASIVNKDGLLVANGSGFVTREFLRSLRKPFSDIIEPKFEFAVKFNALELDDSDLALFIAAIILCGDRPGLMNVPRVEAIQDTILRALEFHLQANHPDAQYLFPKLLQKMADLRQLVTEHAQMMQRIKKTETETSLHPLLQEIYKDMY

| SMILES | Kd (PPARγ) | Kd (PPARα) | Kd (PPARδ) |
| --- | --- | --- | --- |
| O=C(O)Cc1ccc(Sc2ccc(N(CCc3ccccc3)C(=O)NC3CCCCC3)cc2)cc1 [Example 116b, {4-[4-(3-Cyclohexyl-1-phenethylureido)phenylsulfanyl]phenyl}acetic acid] | 0.5 µM | 0.25 µM | 0.12 µM |
| CCCCCCNC(=O)N(CCCc1ccccc1)c1cccc(Sc2ccc(CC(=O)O)cc2)c1 [Example 30b, (4-{3-[3-Hexyl-1-(3-phenylpropyl)ureido]phenylsulfanyl}phenyl)acetic acid] | 2 µM | 8 µM | 0.12 µM |
